From publication PMC10296061, “Inhibition of the Mitochondrial Carnitine/Acylcarnitine Carrier by Itaconate through Irreversible Binding to Cysteine 136: Possible Pathophysiological Implications” (Biomolecules, 2023)
Positions count from the first letter of the chain named.

Legend:
[1] = target: T1, CAC C23V/C58V/C89S/C136V/C155V/C283S (C-less) mutant (Rattus norvegicus, UniProt P97521, C136V/C155V/C23V/C283S/C58V/C89S); assay: Transport assay in proteoliposomes, C-less CAC mutant; format: biochemical
T1 construct: made in house; host or cells: E. coli C0214
T1 sequence (P97521 1-301 C23V/C58V/C89S/C136V/C155V/C283S): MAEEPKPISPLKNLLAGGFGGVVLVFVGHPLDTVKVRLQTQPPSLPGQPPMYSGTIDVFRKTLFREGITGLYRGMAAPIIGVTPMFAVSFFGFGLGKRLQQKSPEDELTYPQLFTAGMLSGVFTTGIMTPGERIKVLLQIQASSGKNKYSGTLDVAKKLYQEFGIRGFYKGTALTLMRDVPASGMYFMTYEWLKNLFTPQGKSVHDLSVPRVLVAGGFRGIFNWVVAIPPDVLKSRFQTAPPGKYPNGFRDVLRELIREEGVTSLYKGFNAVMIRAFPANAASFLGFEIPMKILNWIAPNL
Method: (§1) As previously described, the pMW7-WTratCAC recombinant plasmid was used for over-expressing the rat CAC [22]. The overlap extension method was used to introduce the mutations; in the main time, NdeI and HindIII restriction sites were also added using appropriate primers. The PCR products were purified by the QIAEX II Gel Extraction Kit (QIAGEN) and digested with NdeI and HindIII and then ligated into the pMW7. All mutations were verified by DNA sequencing. The resulting plasmid constructs were transformed into E. coli C0214. Overexpression, inclusion body fraction preparation, and purification of the CAC proteins were performed as previously described.
(§2) As previously described, recombinant CAC (WT and mutants) and ORC1 proteins were used for proteoliposome formation. For experiments with native CAC, ORC1, or ANT proteins, rat liver mitochondria, or HeLa cell mitochondria, the latter for the CAC alone, were first purified using the standard procedure of cell disruption and differential centrifugation. Then proteins were extracted using 3% Triton X-100 and reconstituted as described for the recombinant proteins. The concentration of intraliposomal carnitine and ornithine was 15 mM and 30 mM, respectively, in all samples.
(§3) To test the transport activity of the CAC, 550 μL of proteoliposomes was passed through a Sephadex G-75 column to remove the external substrate. Six hundred μL of the turbid eluate was collected, divided into samples of 100 μL each, and used for transport measurement by the inhibitor-stop method. Transport was started by adding 0.1 mM [^3H]carnitine ([^3H]ornitine or [^3H]ATP) to proteoliposome samples and stopped with 1.5 mM NEM (N-ethylmaleimide) at the indicated time interval. In the control samples, NEM was added with the labeled substrate at time zero. Transport rates were measured in 10 min, i.e., within the initial linear range of the time course, at 25 °C. After terminating the transport reaction, the external substrate was removed by chromatography on the Sephadex G-75 column, and the intraliposomal radioactivity was measured. The experimental values were corrected by subtracting the controls.
Figure 3 Identification of residue responsible for itaconate inhibition. (a) Dose–response analysis of the Cys mutants of CAC for the inhibition by itaconate was performed. Transport activity of the WT (○), C136A (●), C155A (Δ), C23V/C58V/C89S/C155V/C283S (▲), and C23V/C58V/C89S/C136V/C155V/C283S (□) was measured by adding 0.1 mM [^3H]carnitine after treatment by itaconate at the indicated concentrations. Transport activity (µmol/10 min/mg) is: WT 1.80 ± 0.31; C136A 0.91 ± 0.10; C155A 1.00 ± 0.17; C23V/C58V/C89S/C155V/C283S 1.02 ± 0.159; C23V/C58V/C89S/C136V/C155V/C283S 0.71 ± 0.22. (b) Dose–response analysis of proteoliposomes reconstituted native (○) or recombinant ORC (●) incubated with itaconate at the indicated concentrations. Transport activity was measured by adding 0.1 [^3H]ornithine, respectively, as described in Materials and Methods. The data are expressed as a percent of the controls (no addition of itaconate) and are means ± SD from three independent experiments.
Figure 4 Lysine contribution to CAC inhibition by itaconate. Protection of PLP (pyridoxal phosphate) from inhibition by itaconate on C-less CAC was carried out. C-less mutant (i.e., C23V/C58V/C89S/C136V/C155V/C283S) was reconstituted into proteoliposomes and treated or not treated with 30 mM PLP for 10 min (“Contr” or “PLP” column, respectively). […]

recombinant CAC (WT) = target: T2, recombinant CAC (WT) (Rattus norvegicus, UniProt P97521); assay: [3H]carnitine/carnitine antiport in proteoliposomes reconstituted with recombinant WT CAC; format: biochemical; details: recombinant WT CAC, pH 6.5, 10 min incubation; read-out: IC50 for inhibition of transport at pH 6.5
T2 construct: made in house; host or cells: E. coli C0214
T2 sequence (P97521 1-301): T1 sequence (P97521 1-301 C23V/C58V/C89S/C136V/C155V/C283S) with V23C, V58C, S89C, V136C, V155C, S283C
Method: as §1, §2, §3
Figure 1 Effect of itaconate on the native and recombinant mitochondrial carnitine/acylcarnitine (CAC). Dose–response analysis for itaconate inhibition was carried out using proteoliposomes reconstituted with native (○) or recombinant (●) CAC carriers. After 10 min of itaconate incubation, transport activity was started by adding 0.1 mM [^3H]carnitine and stopped after 10 min as described in Section 2. Percent of residual activity with respect to the control, without itaconate treatment, was reported. The values are the means ± SD from three independent experiments.
Figure 2 Effect of different pH on the inhibition of CAC protein by itaconate. (a) Proteoliposomes reconstituted with the recombinant CAC were incubated at various pHs (range pH 6.5–8.5) for 10 min with 10 mM itaconate. (b) Dose–response analysis of inhibition by itaconate of the recombinant CAC at pH 6.5. was performed. Proteoliposomes were incubated for 10 min at pH 6.5 with itaconate at the indicated concentrations. In both (a,b), the transport activity was measured for 10 min by adding to proteoliposomes 0.1 mM [^3H]carnitine.

CAC from HeLa cells = target: T3, CAC from HeLa cells (Homo sapiens, UniProt O43772); assay: HeLa cells treated with DMI, CAC extracted from mitochondria and reconstituted for transport assay; format: cell-based; details: 10 mM DMI, 45 min
T3 construct: CAC from mitochondria protein extract of HeLa cells treated with 10 mM DMI or vehicle (control) was reconstituted in proteoliposomes; endogenous in cells; host or cells: HeLa cells
T3 sequence (O43772 1-301): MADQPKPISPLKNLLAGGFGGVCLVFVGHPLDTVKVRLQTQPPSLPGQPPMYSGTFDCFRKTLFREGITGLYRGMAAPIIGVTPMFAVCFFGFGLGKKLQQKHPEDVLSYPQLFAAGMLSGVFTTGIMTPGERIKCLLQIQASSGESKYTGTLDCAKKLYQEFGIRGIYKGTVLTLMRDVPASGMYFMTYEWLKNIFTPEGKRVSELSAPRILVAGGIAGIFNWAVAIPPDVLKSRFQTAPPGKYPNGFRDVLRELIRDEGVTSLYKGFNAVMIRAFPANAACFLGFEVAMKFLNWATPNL
Description: as §2
To test the transport activity of the CAC, 550 μL of proteoliposomes was passed through a Sephadex G-75 column to remove the external substrate. […] Transport rates were measured in 10 min, i.e., within the initial linear range of the time course, at 25 °C. After terminating the transport reaction, the external substrate was removed by chromatography on the Sephadex G-75 column, and the intraliposomal radioactivity was measured. […]
Figure 10 Effect of dimethyl itaconate (DMI) on CAC. […] Thus, the transport activity was measured for 10 min by adding to proteoliposomes 0.1 mM [^3H]carnitine. […] Transport activity in the presence or absence of DTE was measured as described in Materials and Methods. […]

inhibition at 30000 µM ([1]; 30 mM PLP for 10 min) [%]	reversibility of inhibition after removal of PLP by size exclusion chromatography (G-75) ([1]; 30 mM PLP, then G-75)	IC50 (recombinant CAC (WT)) [mM]	CAC transport activity after treatment of cells (CAC from HeLa cells)	reversal of inhibition by DTE (CAC from HeLa cells; DTE in transport assay)	SMILES
~75	fully reversed	–	–	–	Cc1ncc(COP(=O)(O)O)c(C=O)c1O [PLP, pyridoxal 5′-phosphate, reference compound]
–	–	20 ± 4.9	strongly inhibited	could not be reversed	C=C(CC(=O)OC)C(=O)OC [dimethyl itaconate]
